Like-named read-outs stand apart in the source and are kept apart here.
Columns and labels:
CYP3A5^G480A = CYP3A5^G480A (Homo sapiens, UniProt P20815, G480A); assay: Cell-based P450-Glo CYP3A mutant inhibition assay, CYP3A5 G480A; conditions: 293T/17 cells
CYP3A5 [1] = target: T1, CYP3A5 (Homo sapiens, UniProt P20815); assay: Time-dependent inhibition assay; assay type: biochemical; conditions: pre-incubation 0 or 30 mins at room temperature
CYP3A4^F108L = CYP3A4^F108L (Homo sapiens, UniProt P08684, F108L); assay: Cell-based P450-Glo CYP3A mutant inhibition assay, CYP3A4 F108L; conditions: relative to CYP3A4^WT; 293T/17 cells
CYP3A5 G480L = CYP3A5 G480L (Homo sapiens, UniProt P20815, G480L); assay: Cell-based P450-Glo CYP3A mutant inhibition assay, CYP3A5 G480L; conditions: G480L substitution; 293T/17 cells
CYP3A4^D214G = CYP3A4^D214G (Homo sapiens, UniProt P08684, D214G); assay: Cell-based P450-Glo CYP3A mutant inhibition assay, CYP3A4 D214G; conditions: 293T/17 cells
CYP3A5^G214A/G480A = CYP3A5^G214A/G480A (Homo sapiens, UniProt P20815, G214A/G480A); assay: Cell-based P450-Glo CYP3A mutant inhibition assay, CYP3A5 G214A/G480A; conditions: 0.08–20 μM CBZ; 293T/17 cells
CYP3A5 G480S = CYP3A5 G480S (Homo sapiens, UniProt P20815, G480S); assay: Cell-based P450-Glo CYP3A mutant inhibition assay, CYP3A5 G480S; conditions: G480S substitution; 293T/17 cells
CYP3A4^WT = CYP3A4^WT (Homo sapiens, UniProt P08684); assay: Cell-based P450-Glo CYP3A mutant inhibition assay, CYP3A4 WT; conditions: 293T/17 cells; also prior data ref 30
purified human CYP3A5 [2] = target: T2, purified human CYP3A5 (Homo sapiens, UniProt P20815); conditions: 10 min
CYP3A4 = CYP3A4 (Homo sapiens, UniProt P08684); assay: UV-Vis spectroscopy binding assay, CYP3A4; conditions: for increase in Ks on removal of the region B group: CYP3A4, region B-deleted analog vs parent
purified human CYP3A5 [3] = target: T2, purified human CYP3A5; assay: Biochemical P450-Glo CYP3A inhibition assay, CYP3A5
CYP3A5 [4] = target: T1, CYP3A5; assay: UV-Vis spectroscopy binding assay, CYP3A5
purified human CYP3A4 [5] = target: T3, purified human CYP3A4 (Homo sapiens, UniProt P08684); assay: Biochemical P450-Glo CYP3A inhibition assay, CYP3A4
CYP3A5 [6] = target: T1, CYP3A5; assay: in vitro
purified human CYP3A4 [7] = target: T3, purified human CYP3A4; conditions: 10 min

## CCC(=O)O[C@]1(C(=O)CCl)[C@@H](C)C[C@H]2[C@@H]3CCC4=CC(=O)C=C[C@]4(C)[C@@]3(F)[C@@H](O)C[C@@]21C [CBZ, Clobetasol propionate]
CYP3A5^G480A
  inhibition compared with CYP3A5^WT: to the same extent as was CYP3A5^WT
CYP3A5 [1]
  time-dependent inhibition of CYP3A5: not time-dependent inhibitors of CYP3A5
CYP3A4^F108L
  effect of the F108L substitution on inhibitory potency: substantially weakened the inhibitory potency
CYP3A5 G480L
  reduction in potency vs WT: at least 20 fold
CYP3A4^D214G
  inhibition compared with CYP3A4^WT: identically
CYP3A5^G214A/G480A
  effect on enzyme activity: weakly activated
CYP3A5 G480S
  reduction in potency vs WT: at least 20 fold
CYP3A4^WT
  CYP3A4 inhibition: can be inhibited at high CBZ concentrations
Purified human CYP3A5 [2]
  CYP3A5 inhibition: potent and selective inhibitor of CYP3A5
CYP3A4
  increase in Ks on removal of the region B group: approximately 20 fold

## CCC(=O)OCC(=O)[C@@]1(OC(=O)CC)[C@@H](C)C[C@H]2[C@@H]3CCC4=CC(=O)C=C[C@]4(C)[C@@]3(F)[C@@H](O)C[C@@]21C [betamethasone dipropionate]
Purified human CYP3A5 [2]
  CYP3A5 inhibition: consistently weaker CYP3A5 inhibition

## C[C@H]1C[C@H]2[C@@H]3CCC4=CC(=O)C=C[C@]4(C)[C@@]3(F)[C@@H](O)C[C@]2(C)[C@@]1(O)C(=O)CCl [clobetasol, Clobetasol]
Purified human CYP3A5 [3]; P450-Glo biochemical assay
  CYP3A5 inhibition: failed to inhibit CYP3A5 even at the highest concentration tested
CYP3A5 [4]; dexamethasone acetate vs difluprednate, clobetasol vs CBZ, Ks higher
  Ks relative to the counterpart with region B group: > 100 fold
Purified human CYP3A4 [5]; purified full-length CYP3A4, luciferin-IPA
  IC50: 13 ± 4 µM

## CCCC(=O)O[C@]1(C(=O)CCl)[C@@H](C)C[C@H]2[C@@H]3CCC4=CC(=O)C=C[C@]4(C)[C@@]3(F)C(=O)C[C@@]21C [clobetasone butyrate, Clobetasone butyrate]
Purified human CYP3A5 [3]; IC50 of analog relative to CBZ
  weaker CYP3A5 inhibition than CBZ (IC50 ratio): approximately 5 fold
Purified human CYP3A4 [5]; P450-Glo biochemical assay
  CYP3A4 inhibition: slightly enhanced CYP3A4 inhibition
CYP3A4
  Ks for CYP3A4 compared with CBZ: maintained similar Ks value

## C[C@@H]1C[C@H]2[C@@H]3CCC4=CC(=O)C=C[C@]4(C)[C@@]3(F)[C@@H](O)C[C@]2(C)[C@H]1C(=O)CO [desoximetasone]
Purified human CYP3A5 [2]
  CYP3A5 inhibition: no or weaker CYP3A5 inhibition than that of CBZ

## CC(=O)OCC(=O)[C@@]1(O)[C@H](C)C[C@H]2[C@@H]3CCC4=CC(=O)C=C[C@]4(C)[C@@]3(F)[C@@H](O)C[C@@]21C [dexamethasone acetate]
CYP3A5 [6]
  inhibition at 10 min, 300 µM: 35%
CYP3A5 [4]; human, pH 7.4
  Ks relative to the counterpart with region B group: > 100 fold

## CC(=O)OCC(=O)[C@@]1(OC(C)=O)[C@@H](C)C[C@H]2[C@@H]3C[C@H](F)C4=CC(=O)C=C[C@]4(C)[C@@]3(F)[C@@H](O)C[C@@]21C [diflorasone]
Purified human CYP3A5 [2]
  CYP3A5 inhibition: no or weaker CYP3A5 inhibition than that of CBZ
Purified human CYP3A4 [7]
  CYP3A4 inhibition: still capable of inhibiting CYP3A4 at high concentrations

## CCCC(=O)O[C@]1(C(=O)COC(C)=O)CC[C@H]2[C@@H]3C[C@H](F)C4=CC(=O)C=C[C@]4(C)[C@@]3(F)[C@@H](O)C[C@@]21C [difluprednate]
CYP3A5 [4]; human, pH 7.4
  increase in Ks on removal of the region B group: > 100 fold
Purified human CYP3A5 [2]
  CYP3A5 inhibition: strongest and most selective CYP3A5 inhibitor among all compounds we tested
Purified human CYP3A4 [7]
  weakening of CYP3A4 inhibition on deleting the region B group: approximately 10 fold
CYP3A4
  increase in Ks on removal of the region B group: 3 fold

## CCOC(=O)O[C@]1(C(=O)COC(=O)CC)CC[C@H]2[C@@H]3CCC4=CC(=O)C=C[C@]4(C)[C@H]3[C@@H](O)C[C@@]21C [prednicarbate, Prednicarbate]
Purified human CYP3A5 [2]
  CYP3A5 inhibition: consistently weaker CYP3A5 inhibition

— PMC8594567 (Journal of the American Chemical Society, 2021)
